Entries after “also recorded” stand apart in the source; their conditions may differ.

For test [1], the system named is Kmt2d+/βGeo mice. The test can be described thus: Morris water maze (hippocampal memory) in the Kmt2d+/βGeo mouse model of Kabuki syndrome. The conditions noted are these: 10 mg/kg/day. The class given is in vivo. The text has this:
(§1) Kmt2d^+/βGeo mice, also named Mll2Gt^(RRt024) Byg, were acquired from Bay Genomics (University of California). All experimental mice were on a mixed C57BL/6J and 129/SvEv background. Expected Mendelian ratios were observed when heterozygous animals were bred to wild-type. In heterozygous crosses, however, there was uniform embryonic lethality of homozygotes by ED 12, the earliest developmental stage assayed. For treatment with AR-42, mice were orally gavaged daily with drug (Selleck Chemicals, Houston, Tex.) solubilized in vehicle (0.5% methylcellulose, 0.1% Tween-80, water) or with vehicle alone. Drug delivery information was kindly provided by Drs. Chen and Kulp from Ohio State University (Huang et al. (2011) Mol. Pharmacol. 79:197-20619). Drug was administered for 14 days and mice were sacrificed on day 15. Morris water maze testing was initiated at day 7 and a dose of 10 mg/kg/day was used for these studies. For quantification of DCX positive cells, doses of 0, 5, 10 and 25 mg/kg/day were used. Genotyping was performed using primers B-GeoF-([…]; SEQ ID NO: 1) and B-GeoR-([…]; SEQ ID NO: 2) that are specific for the targeted allele and TcrdF-([…]; SEQ ID NO: 3) and TcrdR-([…]; SEQ ID NO: 4) that control for sufficient DNA concentration. Real-time PCR using the same primers allows discrimination between the heterozygous and homozygous state for the targeted allele. Maxillary protrusion was evaluated by ten investigators blinded to genotype and they were asked to rate maxillary protrusion on radiographs as either large (2) or small (1). […] All experiments were performed using mouse protocols approved by the Animal Care and Use Committee of Johns Hopkins University School of Medicine. The mouse protocols used for this study are in accordance with the guidelines used by the NIH for mouse care and handling.
Mice were placed in a 1.1 meter diameter tank filled with room temperature water dyed with non-toxic white paint. For analysis purposes, the tank was divided into four quadrants, with one quadrant containing a small platform submerged 1.5 cm beneath the water. On each day of training, mice were placed in the tank in a random quadrant facing away from the center and were allowed to swim until they found the platform and were left there for 30 seconds. […] Each mouse was given 4 trials per day (for 5 days) with no inter-trial interval and subsequently returned to its home cage. Latency to reach the platform was measured during each trial. The day after the final day of training, the platform was removed for a probe trial where mice were placed in the tank for 90 s. Average number of crossings of the platform's previous location was recorded. Visible/flagged platform training was also performed for 3 days either before the hidden platform or after the probe trial, where a visible flag was placed on the submerged platform, and the time for each mouse to reach the platform was measured for each 60 second trial, four of which were run in the same way as the hidden platform training. For all training and probe testing, data was recorded both manually and electronically with ANY-maze software (San Diego Instruments, San Diego, Calif.) when applicable. All data were collected and analyzed by an individual blinded to genotype and treatment group. Differences in the number of platform crossings during the probe trial were compared between groups with a Student's t-test with significance value set at P<0.05.

The test system of test [2] is Klf10 expression. The test is described as follows: Real-time PCR of Kmt2d target gene Klf10 in spleen cells. The class given is in vivo, mouse. The conditions noted are these: AR-42 treatment (10 mg/kg/day); FIG. 26. As for the experimental part:
Real-time PCR was performed using Kmt2d-specific probes for exons 20 and 52 (Mm_02600438 and Mm_01717664, respectively) from TaqMan® Gene Expression Assays (Life Technologies, Carlsbad, Calif.). For a comparison of transfection efficiencies for indicator constructs in transient transfection studies, real-time PCR was performed using SYBR Green Real-Time PCR Master Mix (Life Technologies, Carlsbad, Calif.) and primers IND-F-([…]; SEQ ID NO: 5) and IND-R-([…]; SEQ ID NO: 6) that are specific for the H3K4 methylation indicator. For expression analysis for KMT2D target gene KLF10, real-time PCR was performed using Klfl0-specific expression assay (Mm00449812_m1) from TaqMan® Gene Expression Assays (Life Technologies, Carlsbad, Calif.).
For orientation: Real-time PCR tracks product formation cycle by cycle.

Test [3] relates to H3K4 trimethylation and histone acetylation. The conditions noted are these: Huang et al. (2011); cited from earlier work.
Test [4] has as its system DCX positive cells in the GCL (neurogenesis). The test can be described thus: Doublecortin (DCX) expression in the GCL (neurogenesis) after oral AR-42. Type of test: in vivo, mouse.
Excerpt: as §1
Every 6th brain section was selected and then blocked with 5% Bovine Serum Albumin (BSA) at room temperature followed by incubation with primary antibodies overnight at 4° C. Secondary antibodies were then applied for 1 hour at room temperature, after which sections were mounted onto microscope slides with Vectamount with DAPI (Vector Laboratories, Burlingame, Calif.). Primary antibodies included Doublecortin (DCX) (SC-8066, Santa Cruz Biotechnology, Dallas, Tex., 1:200 goat), trimethylated H3K4 (9727L, Cell Signaling Technology, Beverly, Mass., 1:500 rabbit), and Kmt2d H-300 (SC-292359, Santa Cruz Biotechnology, Dallas, Tex., 1:500 rabbit). Non-specific binding was not observed when sections were sequentially exposed to serum (or IgG when appropriate) from the same species as the primary antibody for each experiment (i.e. rabbit for KMT2D and H3K4me3 and goat for doublecortin), followed by the secondary antibody used for KMT2D and H3K4me3 (anti-rabbit) or doublecortin (anti-goat, FIG. 29).
The area of both the GCL and DCX+ cells was measured using the NS elements 2.0 software (Nikon, Tokyo, JPN). Normalized DCX area was calculated by measuring the DCX+ area of the GCL and setting the baseline (Kmt2d^+/+) fraction to 1. A Student t-test with significance value set at P<0.05 was used for comparison of DCX+ area referenced to GCL area between genotypes and treatment arms.

Test [5] relates to H3K4me3 in the dentate gyrus GCL. The test can be described thus: Immunofluorescence of H3K4me3 in the dentate gyrus GCL after oral AR-42. The class given is in vivo, mouse. The conditions noted are these: 25 mg/kg/day oral, two weeks, from 20 weeks of age; vs untreated; FIG. 24A, 24B. The source says: Kmt2d^+/βGeo mice, also named Mll2Gt^(RRt024) Byg, were acquired from Bay Genomics (University of California). All experimental mice were on a mixed C57BL/6J and 129/SvEv background. Expected Mendelian ratios were observed when heterozygous animals were bred to wild-type. In heterozygous crosses, however, there was uniform embryonic lethality of homozygotes by ED 12, the earliest developmental stage assayed. For treatment with AR-42, mice were orally gavaged daily with drug (Selleck Chemicals, Houston, Tex.) solubilized in vehicle (0.5% methylcellulose, 0.1% Tween-80, water) or with vehicle alone. Drug delivery information was kindly provided by Drs. […] For quantification of DCX positive cells, doses of 0, 5, 10 and 25 mg/kg/day were used. […] Maxillary protrusion was evaluated by ten investigators blinded to genotype and they were asked to rate maxillary protrusion on radiographs as either large (2) or small (1). […]
Z-stack images of slides were taken at either 10× using Zeiss Axiovert 200 with 510-Meta confocal module (Carl Zeiss, Jena, GER) or 25× using Zeiss AxioExaminer with 710NLO-Meta multiphoton (Carl Zeiss, Jena, GER). From 10× pictures, the GCL was highlighted and fluorescent intensities for both DAPI and H3K4me3 were measured at the midpoint of the entire z-stack (Zen software, Carl Zeiss, Jena, GER) with the value for Kmt2d^+/+ animals set equal to one. […]

For `CC(C)[C@H](C(=O)Nc1ccc(C(=O)NO)cc1)c1ccccc1` [AR-42, (S)—N-hydroxy-4-(3-methyl-2-phenylbutanamido)benzamide], the “functional studies outcome by dose” value in test [1] was “most improvement in functional studies”. The “escape latency during training, Kmt2d+/βGeo vs Kmt2d+/+ both on drug” value in test [1] (FIG. 12B) is recorded as “No significant difference is observed”. The “escape latency during training, Kmt2d+/βGeo animals with vs without drug” value in test [1] (FIG. 12D) is reported as “No significant difference is observed”. Besides, the “frequency of platform crossing during probe trial, Kmt2d+/βGeo mice” value in test [1] (FIG. 25F) was “normalized”. Also, in test [1] (P<0.01, FIG. 12C), the “escape latency during training, Kmt2d+/+ animals with vs without drug” value is recorded as “significant difference”. The “platform crossing during probe trial, both Kmt2d+/+ and Kmt2d+/βGeo mice” value in test [1] (greater response in Kmt2d+/βGeo, FIG. 25F) was “improved performance”. Besides, the “Klf10 expression in spleen cells of Kmt2d+/βGeo mice” value in test [2] is on record as “normalization of expression of Klf10; also recorded: normalized”. The “relative effect on H3K4me3 among HDACi” value in test [3] was “strongest effect on H3K4me3”. For the same compound, the “DCX expression in the GCL” value is reported as “improved” in test [4] (10 mg/kg/day, older (5-6 months) Kmt2d+/βGeo mice, FIG. 24D); “reduced DCX expression” in test [4] (25 mg/kg/day, Kmt2d+/+ animals, FIG. 24C); “did not improve DCX expression” in test [4] (25 mg/kg/day, Kmt2d+/βGeo mice, FIG. 24C); “decreased DCX expression” in test [4] (25 mg/kg/day, young (1-2 month) and old (5-6 month) Kmt2d+/+ and Kmt2d+/βGeo mice); “preservation or restoration of DCX expression” in test [4] (5 and 10 mg/kg/day, Kmt2d+/+ (preservation) or Kmt2d+/βGeo (restoration), both age groups). The “difference in normalized DCX expression between mutant and wild-type animals” value in test [4] (10 mg/kg/day, one to two month old mice) is “no difference between mutant and wild-type animals”. Also, the “postnatal neurogenesis in the granule cell layer of the dentate gyrus (overall statement)” value in test [4] (mouse model of KS, ages 1-2 months and 5-6 months) is recorded as “beneficial effect; also recorded: rescued postnatal neurogenesis”. Further, the “neurogenesis (normalized DCX expression)” value in test [4] (one to two month old Kmt2d+/βGeo mice, 0-10 mg/kg/day, FIG. 25C, 25D) is “dose-dependent increase in neurogenesis”. The “H3K4me3 in the GCL” value in test [5] is on record as “increased H3K4 trimethylation”.

Source of the values: patent publication US11357748B2, “Methods for treating mendelian disorders of the epigenetic machinery” (THE JOHNS HOPKINS UNIVERSITY, priority 2014, dated 2022).
